Data reported in ChEMBL document CHEMBL2321716, “Exploring a new frontier in cancer treatment: targeting the ubiquitin and ubiquitin-like activating enzymes” (J Med Chem, 2013).

Experiments:
[1] = target: T1, Ubiquitin-like modifier-activating enzyme 7 (Homo sapiens, UniProt P41226); experiment: Inhibition of UBA7 (unknown origin) in presence of ATP
T1 sequence (P41226 whole entry): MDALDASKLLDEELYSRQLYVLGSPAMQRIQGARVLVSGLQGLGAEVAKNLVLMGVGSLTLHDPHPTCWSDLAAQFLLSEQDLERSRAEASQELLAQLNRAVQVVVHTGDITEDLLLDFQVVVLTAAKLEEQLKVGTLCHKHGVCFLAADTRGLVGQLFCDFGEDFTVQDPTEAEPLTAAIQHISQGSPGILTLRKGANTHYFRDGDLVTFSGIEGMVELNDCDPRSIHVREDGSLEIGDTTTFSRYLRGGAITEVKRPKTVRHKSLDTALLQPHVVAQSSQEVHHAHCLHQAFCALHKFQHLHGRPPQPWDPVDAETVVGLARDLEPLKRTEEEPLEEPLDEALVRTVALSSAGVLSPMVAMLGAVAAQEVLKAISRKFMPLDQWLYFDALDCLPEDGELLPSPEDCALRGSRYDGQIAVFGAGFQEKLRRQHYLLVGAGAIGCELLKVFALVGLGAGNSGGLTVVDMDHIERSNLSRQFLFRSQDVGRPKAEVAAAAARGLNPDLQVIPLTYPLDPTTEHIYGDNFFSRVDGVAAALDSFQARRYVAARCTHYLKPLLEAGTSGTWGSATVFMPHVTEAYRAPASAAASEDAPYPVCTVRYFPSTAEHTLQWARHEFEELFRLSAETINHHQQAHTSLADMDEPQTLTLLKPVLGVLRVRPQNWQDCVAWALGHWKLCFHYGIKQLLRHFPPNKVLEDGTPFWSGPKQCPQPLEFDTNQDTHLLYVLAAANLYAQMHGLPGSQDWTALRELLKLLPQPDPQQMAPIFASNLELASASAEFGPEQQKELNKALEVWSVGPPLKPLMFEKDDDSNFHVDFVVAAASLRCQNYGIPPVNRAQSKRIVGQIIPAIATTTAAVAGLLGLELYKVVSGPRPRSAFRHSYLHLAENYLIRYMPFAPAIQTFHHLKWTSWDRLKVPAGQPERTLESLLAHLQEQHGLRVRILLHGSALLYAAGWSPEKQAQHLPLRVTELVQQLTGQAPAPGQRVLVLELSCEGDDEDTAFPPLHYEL

[2] = target: T2, Ubiquitin-like modifier-activating enzyme ATG7 (Homo sapiens, UniProt O95352); experiment: Inhibition of ATG7 (unknown origin) in presence of ATP
T2 sequence (O95352 whole entry): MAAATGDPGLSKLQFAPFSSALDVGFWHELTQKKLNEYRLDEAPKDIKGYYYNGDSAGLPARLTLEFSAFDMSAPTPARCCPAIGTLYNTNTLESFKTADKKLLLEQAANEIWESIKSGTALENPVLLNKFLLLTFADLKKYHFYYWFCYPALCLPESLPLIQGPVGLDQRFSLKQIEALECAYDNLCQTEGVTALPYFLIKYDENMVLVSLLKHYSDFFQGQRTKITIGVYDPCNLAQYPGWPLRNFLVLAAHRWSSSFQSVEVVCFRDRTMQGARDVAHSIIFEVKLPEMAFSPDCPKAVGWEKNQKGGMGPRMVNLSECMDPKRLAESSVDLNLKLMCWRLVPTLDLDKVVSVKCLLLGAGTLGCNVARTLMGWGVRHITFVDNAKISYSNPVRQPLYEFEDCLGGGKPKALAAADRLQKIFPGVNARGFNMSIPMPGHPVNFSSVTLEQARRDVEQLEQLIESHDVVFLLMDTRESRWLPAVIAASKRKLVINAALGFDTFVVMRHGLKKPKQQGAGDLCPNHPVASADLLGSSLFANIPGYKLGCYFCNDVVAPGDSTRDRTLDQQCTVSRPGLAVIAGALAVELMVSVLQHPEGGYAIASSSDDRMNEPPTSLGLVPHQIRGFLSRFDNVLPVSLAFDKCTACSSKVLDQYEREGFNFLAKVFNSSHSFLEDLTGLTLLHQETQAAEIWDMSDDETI

[3] = target: T3, Ubiquitin-like modifier-activating enzyme 6 (Homo sapiens, UniProt A0AVT1); experiment: Inhibition of UBA6 (unknown origin) in presence of ATP
T3 sequence (A0AVT1 whole entry): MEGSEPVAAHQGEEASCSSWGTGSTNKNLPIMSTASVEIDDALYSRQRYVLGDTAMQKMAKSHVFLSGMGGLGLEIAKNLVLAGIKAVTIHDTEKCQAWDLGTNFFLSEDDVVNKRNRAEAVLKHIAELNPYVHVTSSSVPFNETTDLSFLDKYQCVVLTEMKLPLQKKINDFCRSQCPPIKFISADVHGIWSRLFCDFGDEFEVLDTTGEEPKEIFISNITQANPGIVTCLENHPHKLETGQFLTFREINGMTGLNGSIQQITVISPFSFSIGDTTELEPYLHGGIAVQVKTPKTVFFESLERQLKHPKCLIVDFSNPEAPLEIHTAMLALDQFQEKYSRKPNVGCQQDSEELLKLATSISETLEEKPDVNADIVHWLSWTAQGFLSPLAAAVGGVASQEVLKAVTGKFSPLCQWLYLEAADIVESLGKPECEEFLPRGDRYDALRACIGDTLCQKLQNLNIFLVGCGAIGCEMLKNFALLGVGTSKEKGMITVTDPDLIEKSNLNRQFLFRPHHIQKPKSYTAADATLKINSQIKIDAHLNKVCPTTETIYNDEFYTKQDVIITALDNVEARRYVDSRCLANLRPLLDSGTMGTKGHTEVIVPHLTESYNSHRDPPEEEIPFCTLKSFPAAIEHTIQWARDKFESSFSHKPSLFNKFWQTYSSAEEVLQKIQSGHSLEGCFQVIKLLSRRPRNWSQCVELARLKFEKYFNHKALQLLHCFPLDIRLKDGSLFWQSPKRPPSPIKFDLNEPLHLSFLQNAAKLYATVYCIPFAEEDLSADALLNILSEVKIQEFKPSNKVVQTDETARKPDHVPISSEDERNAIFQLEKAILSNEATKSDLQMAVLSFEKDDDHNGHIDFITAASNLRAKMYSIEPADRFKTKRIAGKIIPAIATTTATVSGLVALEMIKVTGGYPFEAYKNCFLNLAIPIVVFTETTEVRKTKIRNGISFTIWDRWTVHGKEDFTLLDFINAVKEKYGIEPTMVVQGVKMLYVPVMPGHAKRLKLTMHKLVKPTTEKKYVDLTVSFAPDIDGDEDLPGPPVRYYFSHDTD

[4] = target: T4, SUMO-activating enzyme subunit 1 (Homo sapiens, UniProt Q9UBE0); experiment: Inhibition of SAE (unknown origin) in presence of ATP
T4 sequence (Q9UBE0 whole entry): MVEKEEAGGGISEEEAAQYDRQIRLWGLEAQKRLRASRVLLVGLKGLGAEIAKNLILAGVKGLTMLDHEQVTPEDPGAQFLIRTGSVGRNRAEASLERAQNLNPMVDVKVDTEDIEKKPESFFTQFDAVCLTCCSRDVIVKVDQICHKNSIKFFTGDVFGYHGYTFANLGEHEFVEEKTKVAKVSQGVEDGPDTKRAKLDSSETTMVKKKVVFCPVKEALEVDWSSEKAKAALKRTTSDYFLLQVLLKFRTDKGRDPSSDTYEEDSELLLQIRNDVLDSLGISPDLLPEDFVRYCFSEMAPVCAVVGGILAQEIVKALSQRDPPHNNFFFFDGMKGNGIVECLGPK

[5] = Inhibition of UAE (unknown origin) in presence of ATP; parameters: species or system Homo sapiens
[6] = Inhibition of human UAE-catalyzed E1-E2 transthiolation reaction expressed in Sf9 insect cells after 90 mins by TR-FRET assay
[7] = Competitive inhibition of human UAE-catalyzed ATP-PPi exchange reaction expressed in Sf9 insect cells after 60 mins in presence of 10 uM ATP
[8] = Competitive inhibition of human UAE-catalyzed ATP-PPi exchange reaction expressed in Sf9 insect cells after 60 mins in presence of 1 mM ATP
[9] = target: T5, NEDD8-activating enzyme E1 regulatory subunit (Homo sapiens, UniProt Q13564); experiment: Inhibition of NAE (unknown origin) assessed as decrease in NEDD8-Ubcl2 formation
T5 sequence (Q13564 whole entry): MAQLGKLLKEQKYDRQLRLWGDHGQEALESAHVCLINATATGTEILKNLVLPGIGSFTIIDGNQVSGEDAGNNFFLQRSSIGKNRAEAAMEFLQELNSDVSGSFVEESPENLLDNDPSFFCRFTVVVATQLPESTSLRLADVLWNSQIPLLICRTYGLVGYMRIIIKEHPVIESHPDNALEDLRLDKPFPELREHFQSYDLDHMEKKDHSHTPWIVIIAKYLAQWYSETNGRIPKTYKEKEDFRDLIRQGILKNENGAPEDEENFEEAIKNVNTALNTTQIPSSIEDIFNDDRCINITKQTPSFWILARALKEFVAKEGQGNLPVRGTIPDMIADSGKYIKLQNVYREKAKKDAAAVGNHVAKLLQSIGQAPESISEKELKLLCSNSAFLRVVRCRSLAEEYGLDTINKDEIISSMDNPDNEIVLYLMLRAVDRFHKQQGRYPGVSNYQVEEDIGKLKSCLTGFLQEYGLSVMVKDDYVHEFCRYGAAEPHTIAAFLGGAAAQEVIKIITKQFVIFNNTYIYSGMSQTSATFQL

[10] = target: T6, NEDD8-activating enzyme E1 catalytic subunit (Homo sapiens, UniProt Q8TBC4); experiment: Inhibition of NAE (unknown origin)-catalyzed transthiolation of NEDD8 from NAE to Ubc12
T6 sequence (Q8TBC4 whole entry): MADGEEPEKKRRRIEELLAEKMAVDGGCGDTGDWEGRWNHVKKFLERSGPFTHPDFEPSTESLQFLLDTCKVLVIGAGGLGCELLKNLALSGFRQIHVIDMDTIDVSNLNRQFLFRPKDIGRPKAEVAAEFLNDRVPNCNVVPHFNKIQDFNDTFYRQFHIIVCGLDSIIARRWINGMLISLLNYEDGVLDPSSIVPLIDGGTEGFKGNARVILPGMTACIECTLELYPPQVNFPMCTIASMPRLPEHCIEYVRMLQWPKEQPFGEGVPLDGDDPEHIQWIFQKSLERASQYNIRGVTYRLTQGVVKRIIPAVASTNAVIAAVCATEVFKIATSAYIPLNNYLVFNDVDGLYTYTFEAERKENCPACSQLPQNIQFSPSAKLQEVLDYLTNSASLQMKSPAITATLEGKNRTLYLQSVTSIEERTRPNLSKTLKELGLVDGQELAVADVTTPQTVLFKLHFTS

[11] = tested on: Caco-2; experiment: Cytotoxicity against human Caco2 cells by MTT assay; format: functional, cell-based
[12] = target: T6, NEDD8-activating enzyme E1 catalytic subunit; experiment: Inhibition of NAE (unknown origin)-catalyzed NEDD8-Ubcl2 intermediate formation by densitometric analysis
[13] = Inhibition of recombinant yeast UAE-catalyzed UAE-Ub intermediate formation after 15 mins by densitometric analysis; parameters: species or system Saccharomyces cerevisiae
[14] = tested on: MCF7; experiment: Cytotoxicity against human MCF7 cells after 48 hrs by WST8 assay; format: functional, cell-based; conditions: MCF7, 48 h
[15] = target: T4, SUMO-activating enzyme subunit 1; experiment: Inhibition of recombinant SAE1(unknown origin)-mediated SUMOylation of RanGAP1-C2
[16] = Inhibition of FLAG-tagged human recombinant UAE-catalyzed UAE-Ub thioester intermediate formation immunoblotting analysis
[17] = target: T4, SUMO-activating enzyme subunit 1; experiment: Inhibition of recombinant His-tagged SAE1(unknown origin)-mediated SUMOylation of RanGAP1-C2 by immunoblotting analysis
[18] = target: T4, SUMO-activating enzyme subunit 1; experiment: Inhibition of human SAE by fluorescence assay
[19] = Inhibition of N-terminal GST-tagged human UAE-catalyzed UAE-Ub thioester intermediate formation expressed in HI5 insect cells after 15 mins by SDS-PAGE analysis

NS(=O)(=O)OC[C@H]1O[C@@H](n2cnc3c(N[C@H]4CCc5ccccc54)ncnc32)[C@H](O)[C@@H]1O
IC50 [1]: 4 µM | IC50 [2]: > 100 µM | IC50 [3]: 920 nM | IC50 [4]: 6.4 µM | IC50 [5]: 5.2 µM | IC50 [6]: 1.4 nM | IC50 [7]: 10.2 nM | IC50 [8]: 5 µM

O=c1cc(-c2ccc(O)cc2)oc2cc(O)c(-c3c(O)cc4oc(-c5ccc(O)cc5)cc(=O)c4c3O)c(O)c12
IC50 [9]: 5 µM | IC50 [10]: 20 µM

O=C(O)CNC(=O)CNC(=O)COc1ccc2nc3n(c(=O)c2c1)CCC3
IC50 [11]: 10 µM | IC50 [12]: 800 nM

C/C=C/[C@]12C(=O)[C@H]3O[C@H]3[C@H](O)[C@H]1[C@H]1C(=C[C@@H]2C)C(=O)[C@H]2O[C@H]2[C@@H]1O
IC50 [13]: 9.4 µM | IC50 [14]: 5.4 µM

CCCC/C=C/[C@]12C(=O)[C@H]3O[C@H]3[C@H](O)[C@H]1[C@H]1C(=C[C@@H]2CCCC)C(=O)[C@H]2O[C@H]2[C@@H]1O
IC50 [13]: 3.5 µM | IC50 [14]: 1 µM

CCCCCCCC/C=C/[C@]12C(=O)[C@H]3O[C@H]3[C@H](O)[C@H]1[C@H]1C(=C[C@@H]2CCCCCCCC)C(=O)[C@H]2O[C@H]2[C@@H]1O
IC50 [13]: 90 µM | IC50 [14]: 3.6 µM

CCCCCCCCCCCCCCCc1cccc(O)c1C(=O)O [ANACARDIC ACID]
IC50 [15]: 2200 nM

CCCCCC/C=C\CCCCCCCc1cccc(O)c1C(=O)O [GINGKOLIC ACID]
IC50 [15]: 3000 nM

C[C@@H](CC(=O)NC(=O)c1coc(/C=C/CCCCCCCCC(=O)O)cc1=O)C(=O)O [HIMEIC ACID A]
IC50 [16]: 50 µM

C[C@@H]1O[C@@H](O[C@H]2[C@H](O)C[C@H](c3ccc4c(c3O)C(=O)C3=C(C4=O)[C@@]4(O[C@H]5CC[C@H](O)[C@H](C)O5)C(=O)C[C@](C)(O)C[C@@]4(O)C=C3)O[C@@H]2C)CC[C@@H]1O[C@H]1C[C@@H](O)[C@H](O)[C@@H](C)O1 [KERRIAMYCIN B]
IC50 [17]: 11.7 µM

CCCCCCCC(=O)SCC/C=C/[C@@H]1CC(=O)NCc2nc(cs2)C2=N[C@@](C)(CS2)C(=O)N[C@@H](C(C)C)C(=O)O1 [LARGAZOLE]
IC50 [18]: 450 µM | IC50 [19]: 29 µM
